The source of these data is the supplement of paper PMC6045584.

Compound in one assay: Cc1cn(-c2cc(NC(=O)c3ccc(C)c(Nc4nccc(-c5cccnc5)n4)c3)cc(C(F)(F)F)c2)cn1 [NILOTINIB]
As to the kind of experiment: surviving fraction relative to DMSO-only wells; higher = less growth inhibition. As to conditions: exposure time: 5 days. The procedure, abridged:
(§1)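 Tumour cell lines were grown to log phase and seeded at 250–500 cells per well in 384-well plates. They were exposed continuously to inhibitors at 0.5, 1, 5, 10, 50, 100, 500 and 1000 nM for five days, beginning 24 hours after seeding. Surviving fraction is CellTiter-Glo luminescence normalised to the median of DMSO-only wells.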

Compound in the next assay: Cn1c(=O)n(-c2ccc(C(C)(C)C#N)cc2)c2c3cc(-c4cnc5ccccc5c4)ccc3ncc21 [BEZ-235]
The assay is described as above. The note with it: exposure time: 5 days. The method, boiled down:
as §1

± gives the standard deviation of the averaged measurements.

Turning to HMT3552 BREAST, the surviving fraction with NILOTINIB (0.5 nM) turned out to be 1.01 ± 0.031; with NILOTINIB (1 nM), 0.968 ± 0.018; in the assay with NILOTINIB (5 nM) it was 1.04 ± 0.021; in the assay with NILOTINIB (10 nM), 1.02 ± 0.018; with NILOTINIB (50 nM), 1.09 ± 0.11; with NILOTINIB (100 nM), 1.07 ± 0.11. Moreover, the surviving fraction was found to be 1.12 ± 0.12 with NILOTINIB (500 nM); 1.1 ± 0.069 in the assay with NILOTINIB (1000 nM); 1.09 with BEZ-235 (0.5 nM); 1.05 in the assay with BEZ-235 (1 nM); 1.01 in the assay with BEZ-235 (5 nM); 1.02 with BEZ-235 (10 nM). The surviving fraction in the assay with BEZ-235 (50 nM) was determined as 0.681; with BEZ-235 (100 nM), 0.466; in the assay with BEZ-235 (500 nM), 0.186; with BEZ-235 (1000 nM), 0.191.
On to HS578T BREAST, for which the surviving fraction was found to be 0.935 ± 0.21 with NILOTINIB (0.5 nM); 1.06 ± 0.049 in the assay with NILOTINIB (1 nM); 0.932 ± 0.16 with NILOTINIB (5 nM); 0.796 ± 0.052 with NILOTINIB (10 nM); 0.766 ± 0.084 with NILOTINIB (50 nM); 0.841 ± 0.1 in the assay with NILOTINIB (100 nM). The surviving fraction with NILOTINIB (500 nM) amounted to 0.848 ± 0.091; in the assay with NILOTINIB (1000 nM), 0.669 ± 0.058; with BEZ-235 (0.5 nM), 1.13 ± 0.15; with BEZ-235 (1 nM) it was 0.972 ± 0.15; in the assay with BEZ-235 (5 nM), 0.997 ± 0.18; in the assay with BEZ-235 (10 nM) it was 0.817 ± 0.092. Further, the surviving fraction with BEZ-235 (50 nM) was 0.46 ± 0.028; with BEZ-235 (100 nM) it was 0.384 ± 0.026; with BEZ-235 (500 nM) it was 0.263 ± 0.027; with BEZ-235 (1000 nM) it was 0.257 ± 0.02.
For the test system G292 BONE, the surviving fraction with NILOTINIB (0.5 nM) was found to be 1.04 ± 0.042; with NILOTINIB (1 nM), 1 ± 0.044; with NILOTINIB (5 nM), 1.08 ± 0.033; in the assay with NILOTINIB (10 nM), 1.06 ± 0.048; with NILOTINIB (50 nM), 1.08 ± 0.031; in the assay with NILOTINIB (100 nM), 1.1 ± 0.023. Also, the surviving fraction with NILOTINIB (500 nM) worked out at 1.02 ± 0.013; with NILOTINIB (1000 nM), 0.956 ± 0.023; with BEZ-235 (0.5 nM), 1.02 ± 0.026; in the assay with BEZ-235 (1 nM), 0.987 ± 0.027; in the assay with BEZ-235 (5 nM), 0.974 ± 0.025; with BEZ-235 (10 nM), 0.982 ± 0.036. The surviving fraction was determined as 0.526 ± 0.032 with BEZ-235 (50 nM), 0.357 ± 0.0091 with BEZ-235 (100 nM), 0.202 ± 0.0096 with BEZ-235 (500 nM) and 0.163 ± 0.0093 in the assay with BEZ-235 (1000 nM).
As to HCC38 BREAST, the surviving fraction with NILOTINIB (0.5 nM) was found to be 0.988 ± 0.28; with NILOTINIB (1 nM), 0.786 ± 0.015; with NILOTINIB (5 nM) it was 1.01 ± 0.16; in the assay with NILOTINIB (10 nM) it was 0.818 ± 0.15; with NILOTINIB (50 nM), 0.742 ± 0.2; in the assay with NILOTINIB (100 nM), 0.758 ± 0.039. Moreover, the surviving fraction came to 0.823 ± 0.24 with NILOTINIB (500 nM); 0.824 ± 0.16 with NILOTINIB (1000 nM); 1.33 ± 0.21 with BEZ-235 (0.5 nM); 1.21 ± 0.094 with BEZ-235 (1 nM); 1.19 ± 0.037 in the assay with BEZ-235 (5 nM); 1.2 ± 0.1 in the assay with BEZ-235 (10 nM). Besides, the surviving fraction with BEZ-235 (50 nM) was 0.862 ± 0.013; with BEZ-235 (100 nM), 0.666 ± 0.035; with BEZ-235 (500 nM), 0.291 ± 0.041; with BEZ-235 (1000 nM) it was 0.278 ± 0.054.
As to HMLE3 BREAST, the surviving fraction in the assay with NILOTINIB (0.5 nM) is 1.11 ± 0.018; with NILOTINIB (1 nM), 1.07 ± 0.11; with NILOTINIB (5 nM) it was 1.19 ± 0.1; with NILOTINIB (10 nM), 1.18 ± 0.15; in the assay with NILOTINIB (50 nM), 1.25 ± 0.026; with NILOTINIB (100 nM), 1.26 ± 0.068. The surviving fraction was determined as 1.27 ± 0.15 with NILOTINIB (500 nM); 1.23 ± 0.18 with NILOTINIB (1000 nM); 1.03 ± 0.092 with BEZ-235 (0.5 nM); 0.966 ± 0.069 with BEZ-235 (1 nM); 0.961 ± 0.036 in the assay with BEZ-235 (5 nM); 0.929 ± 0.047 with BEZ-235 (10 nM). Besides, the surviving fraction in the assay with BEZ-235 (50 nM) came out at 0.582 ± 0.035; in the assay with BEZ-235 (100 nM), 0.315 ± 0.011; with BEZ-235 (500 nM), 0.111 ± 0.0049; with BEZ-235 (1000 nM), 0.0777 ± 0.0078.
Regarding CCK81 LARGE INTESTINE, the surviving fraction stood at 0.78 ± 0.088 in the assay with NILOTINIB (0.5 nM); 0.839 ± 0.07 in the assay with NILOTINIB (1 nM); 0.759 ± 0.055 with NILOTINIB (5 nM); 0.737 ± 0.11 in the assay with NILOTINIB (10 nM); 0.931 ± 0.04 with NILOTINIB (50 nM); 0.877 ± 0.046 with NILOTINIB (100 nM). Besides, the surviving fraction with NILOTINIB (500 nM) came to 0.702 ± 0.1; with NILOTINIB (1000 nM), 0.616 ± 0.023.
HCC70 BREAST: the surviving fraction in the assay with NILOTINIB (0.5 nM) was found to be 1.07 ± 0.049; with NILOTINIB (1 nM), 1.13 ± 0.036; with NILOTINIB (5 nM), 1.12 ± 0.02; in the assay with NILOTINIB (10 nM), 1.09 ± 0.13; with NILOTINIB (50 nM), 1.17 ± 0.052; with NILOTINIB (100 nM), 1.33 ± 0.072. The surviving fraction was found to be 1.34 ± 0.079 with NILOTINIB (500 nM); 1.31 ± 0.04 in the assay with NILOTINIB (1000 nM); 1.1 ± 0.04 with BEZ-235 (0.5 nM); 1.08 ± 0.075 in the assay with BEZ-235 (1 nM); 1.02 ± 0.082 with BEZ-235 (5 nM); 1.13 ± 0.1 with BEZ-235 (10 nM). Moreover, the surviving fraction worked out at 0.836 ± 0.1 in the assay with BEZ-235 (50 nM), 0.599 ± 0.068 with BEZ-235 (100 nM), 0.347 ± 0.034 with BEZ-235 (500 nM) and 0.296 ± 0.025 in the assay with BEZ-235 (1000 nM).
